Values quoted from earlier work, collected in patent US20070098643A1, “Oligomers of gadolinium chelates, their applicationascontrast products in magnetic resonance imaging and their synthesis intermediates” (priority 2002, published 2007).

Key:
[1] = test system: benign and malignant breast tumors; settings: in this model; Daldrup-Link et al. 2000
[2] = in vivo

## Gadomer-17
[1]
  differentiation of benign from malignant tumors in MRI: does not allow such a differentiation
[2]
  C5/C0 ratio: 21%
  distribution volume: 130 mL/kg
  plasma half-life: 37 min
  total plasma clearance: 8.1 mL/min/kg
